What was measured:
endometriosis lesion = experiment: In-vivo model of endometriosis (K-ras transgenic donor tissue in wild-type animals), first study; set-up: species or system mice; details: injected for 21 days, four treated animals
Experimental: In a first study, a total of 4 treatment and 5 control animals were generated in a novel in-vivo model of endometriosis (Research Horizons, University of Cambridge, 2009 Issue 8, GB 0715635.9) K-rasV12/Ah-Cre transgenic mice were crossed with Rosa26R mice to generate KrasV12+/−/Ah-Cre+/−/ROSA26R-LacZ+/− transgenic mice. The F1 offspring were inbred to generate F2 K-rasV12+/−/Ah-Cre+/+/ROSA26R-LacZ+/+ transgenic mice. The presence of the transgenes was determined by PCR using gene specific primers for K-ras, Cre and Rosa26R-LacZ. Tissue was collected from donor animals previously treated with hormones etc. and was divided between wild-type animals that were then injected with drug or vehicle for 21 days.

HT1080 cells = experiment: BrdU incorporation (DNA synthesis) in HT1080 cells; assay type: cell-based, human; details: 18 h, EGF 100 ng/ml, peptide 1 nM
Experimental: Androgen challenging of these cells neither induces AR nuclear translocation, nor enhances DNA synthesis while robustly increases cell motility. In A, quiescent HT1080 cells were transfected with 3416 or 3424 ARE-luc constructs with or without hAR expressing plasmid. Details of these procedures have been described in Methods. Cells were left un-stimulated or stimulated for 18 h with 10 nM R1881. The luciferase activity was assayed, normalized using beta-gal as an internal control, and expressed as fold induction. Means and SEM are shown; n represents the number of experiments. […] In B, quiescent HT1080 cells on coverslips were left untreated or treated for 60 min with 10 nM R1881. Cells were analysed by IF for AR (left images) or Hoechst (right images). Images are representative of three independent experiments. […] In C, BrdU incorporation in cells on coverslips was analysed and expressed as in FIG. 2. In D, the number of migrated cells was evaluated and expressed as relative increase. […]
FIG. 3: Inhibition by S1 peptide of AR/Src complex, Src activation and DNA synthesis triggered by EGF in HT1080 cells. […] Lower section in A, lysates were immune-precipitated with anti EGFR Ab and proteins in immune-complexes were detected using antibodies against the indicated proteins. […] After in vivo pulse with BrdU (100 μM; Sigma), BrdU incorporation was analyzed by IF and expressed as % of total nuclei. […]

[1] = biological target: AR association with Src-SH3 domain (Homo sapiens, UniProt P12931); details: androgen-challenged LNCaP cells, reference 10; cited from earlier work
Sequence of AR association with Src-SH3 domain (P12931 2-536 limits assumed): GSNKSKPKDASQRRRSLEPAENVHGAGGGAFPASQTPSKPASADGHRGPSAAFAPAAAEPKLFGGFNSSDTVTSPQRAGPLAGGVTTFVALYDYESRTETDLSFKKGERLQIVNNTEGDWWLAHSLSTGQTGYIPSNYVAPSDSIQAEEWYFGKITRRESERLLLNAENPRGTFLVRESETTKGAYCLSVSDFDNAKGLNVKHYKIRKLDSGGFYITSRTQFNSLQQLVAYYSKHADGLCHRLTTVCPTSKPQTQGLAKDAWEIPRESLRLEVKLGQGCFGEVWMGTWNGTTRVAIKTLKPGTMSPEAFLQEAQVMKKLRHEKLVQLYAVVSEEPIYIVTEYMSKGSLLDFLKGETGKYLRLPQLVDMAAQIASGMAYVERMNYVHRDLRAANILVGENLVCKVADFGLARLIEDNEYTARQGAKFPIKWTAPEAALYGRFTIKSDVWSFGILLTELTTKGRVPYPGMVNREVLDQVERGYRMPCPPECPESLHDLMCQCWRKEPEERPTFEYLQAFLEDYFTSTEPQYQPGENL

Substance: Ac-PPPHPHARIK-NH2 [VAL001]
- absence of lesion following treatment (endometriosis lesion): three showed complete absence of lesion
- EGF-triggered DNA synthesis (BrdU incorporation) (HT1080 cells): inhibits
- AR association with Src-SH3 domain [1]: competes

Source: patent US10400008B2, “Modulators of the SRC-kinase activity for preventing or treating metastatic cancer” (Cancer Research Technology Limited, priority 2013, dated 2019)
